A short description of this data set: Blood-to-plasma partition ratio in human blood. The class given is in vitro ADME. As to conditions: human whole blood (K2EDTA as anticoagulant), control compounds, 37°C, 60 minutes incubation, LC/MS/MS, read-out: Blood-to-plasma partition ratio (BPR). The method, then: In vitro measurement of blood-to-plasma partition was conducted in human blood (K2EDTA as anticoagulant) obtained from a commercial source (BioReclamation IVT, Liverpool, NY). Hematocrit (the ratio of volume of red blood cells to total blood) was measured by centrifugation of the whole blood at 3000 rpm for 10 minutes using microhematocrit capillary tubes. Control plasma was prepared from a portion of the whole blood by centrifugation at 3000g for 10 minutes. Both whole blood and control plasma samples were warmed at 37°C in a water bath for 30 minutes. Subsequently, the test compounds (1 µM in the final concentration) and controls [methazolamide (BPR ∼1) and metoprolol (BPR […])] were spiked into blood and incubated at 37°C (5% CO2) with shaking at 200 rpm for 60 minutes along with control samples. After incubation for 60 minutes, the incubated whole blood was removed from the water bath, and the plasma was separated by centrifugation at 1000g for 10 minutes. Aliquots of the control plasma were also removed. […] Test compounds and internal standard response (or peak area) ratio in whole blood and its resulting plasma were measured using liquid chromatography with tandem mass spectrometry (LC/MS/MS). Blood-to-plasma partition was calculated by ratio of mass spectrometric response of compounds in blood samples after 60 minutes of incubation to mass spectrometric response in plasma samples.

Structures are written as SMILES.

As for `CC(=O)/N=c1/sc(S(N)(=O)=O)nn1C` [methazolamide], the blood plasma ratio at 60 min is approximately 1.

For the compound `COCCc1ccc(OCC(O)CNC(C)C)cc1` (centres unmarked) [metoprolol], the blood plasma ratio at 60 min was approximately 40.
